Columns and labels:
[1] = system: pY705-STAT3 in Peripheral Blood Mononuclear Cells (PBMC); assay: MSD-pSTAT-PBMC Assay (pSTAT3, IL-6 stimulated); format: cell-based, Human; settings: Homo sapiens, compound 3 hrs, then 10 ng/mL IL-6 for 10 min
Source text: Cryopreserved Peripheral Blood Mononuclear Cells (PBMC) are from AllCells. Recombinant Human IL-4 and IL-6 are from Peprotech. Mouse monoclonal anti-STAT3 antibody, rabbit monoclonal anti-pY705-STAT3 antibody, rabbit monoclonal Anti-pY641-STAT6 antibody, and lysis buffer are from Cell Signaling Technology (CST). Mouse monoclonal anti-STAT6 antibody is from BioLegend. Assay plates, blocker, and anti-rabbit secondary antibody are from Meso Scale Discovery (MSD).
Cryopreserved PBMCs were thawed out and allowed to recover overnight in IMDM+10% heat-inactivated FBS prior to plating 50,000 (STAT3) or 25,000 (STAT6) cells per well in 96-well U-bottom tissue culture plates. Cells were treated with compound for 3 hrs, then stimulated with 10 ng/mL IL-6 (STAT3) or 1 ng/mL IL-4 (STAT6) for 10 min. Cells were then spun down and washed with ice-cold PBS prior to lysing the cell pellet with 1× lysis buffer (CST) with 1×HALT protease and phosphatase inhibitor cocktail (Thermo). Lysates were transferred to and incubated overnight at 4° C. with shaking in QuickPlex 96-well high bind assay plates (MSD) pre-coated overnight with 30 μL per well of 0.6 μg/mL mouse monoclonal anti-STAT3 antibody (STAT3) or 2 μg/mL mouse monoclonal anti-STAT6 antibody (STAT6) in 1×PBS, and pre-blocked for 1 hour with 3% Blocker-A (MSD). Captured protein in the assay plates were then washed and probed with 25 μL per well of 0.25 μg/ml rabbit monoclonal anti-pY705-STAT3 antibody (STAT3) or […] rabbit monoclonal Anti-pY641-STAT6 antibody (STAT6) in 1% Blocker-A for 1 hour at room temperature with shaking, then washed and probed with 25 ul per well of 1 ug/ml Sulfo-TAG Labeled Goat Anti-Rabbit Antibody (MSD) in 1% Blocker-A for 1 hour at room temperature with shaking. Assay plates were then washed and 150 μL of 1× Read Buffer-T (MSD) was added to each well prior to reading on an SQ120 MSD Plate Reader. Assay signal from each sample was subtracted by the signal from unstimulated control wells and normalized to DMSO control wells. IC50 values were calculated using Graph Pad Prism Dose-Response Nonlinear Regression with variable slope. For both pSTAT3 and pSTAT6 A=≤100 nM; B=>100-1000 nM; C=>1000-3000 nM; and D=>3 μM.

[2] = system: pY641-STAT6 in Peripheral Blood Mononuclear Cells (PBMC); assay: MSD-pSTAT-PBMC Assay (pSTAT6, IL-4 stimulated); format: cell-based, Human; settings: Homo sapiens, compound 3 hrs, then 1 ng/mL IL-4 for 10 min
How it was run: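 Phospho-STAT readout used MSD electrochemiluminescence with total STAT3 or STAT6 capture in lysates of cryopreserved human PBMCs. Cells had 3 h compound exposure before a 10 min cytokine pulse: IL-6 10 ng/mL for pSTAT3, IL-4 1 ng/mL for pSTAT6. IC50 came from background-subtracted, DMSO-normalised signal, with categories A≤100 nM up to D>3 μM.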

Compound | IC50 [1] [nM] | IC50 [2] [nM]
CCCN(CCC)C(=O)OCOP(=O)(OCOC(=O)N(CCC)CCC)C(F)(F)c1ccc2sc(C(=O)N[C@@H]3CN(C(C)=O)CC[C@@H]4CC[C@H](C(=O)N(C)c5ccccc5)N4C3=O)cc2c1 [Compound 292, ((((2-(((5R,8R, 10aS)-3-acetyl-8-(methyl (phenyl)carbamoyl)-6-oxodecahydro-pyrrolo[1,2-a][1,5]diazocin-5-yl)carbamoyl)benzo[b]thiophen-5-yl)difluoro-methyl)phos-phoryl)bis(oxy)) bis(methylene) bis(dipropyl-carbamate)] | > 3000 | > 3000
Cc1ccc2[nH]nc(C(=O)N3CC[C@H]4CC[C@@H](C(=O)N(C)C)N4C(=O)[C@@H](NC(=O)c4cc5cc(CP(=O)(N[C@@H](C)C(=O)OC(C)C)Oc6ccccc6)ccc5s4)C3)c2c1 (stereo partly drawn) [Compound 337, isopropyl(((2-(((5S,8S,10aR)-8-(dimethylcarbamoyl)-3-(5-methyl-1H-indazole-3-carbonyl)-6-oxodecahydropyrrolo[1,2-a][1,5]diazocin-5-yl)carbamoyl)benzo [b]thiophen-5-yl)methyl)(phenoxy)phosphoryl)-L-alaninate] | > 3000 | > 3000
CCCC(=O)SCCOP(=O)(OCCSC(=O)CCC)C(F)(F)c1ccc2ccc(C(=O)N[C@H]3CN(C(C)=O)CC[C@H]4CC[C@@H](C(=O)N5C[C@H](c6cc[nH]c(=O)c6)[C@@H](C#N)C5)N4C3=O)cc2c1 (single isomer, unassigned) [Compound 304, S,S′-(((((7-(((5S,8S, 10aR)-3-acetyl-8-((3R,4S or 3S,4R)-3-cyano-4-(2-oxo-1,2-dihydro-pyridin-4-yl)pyrrolidine-1-carbonyl)-6-oxodecahydro-pyrrolo[1,2-a][1,5]diazocin-5-yl)carbamoyl)naphthalen-2-yl)difluoro-methyl)phos-phoryl)bis(oxy))bis(ethane-2,1-diyl))di-butanethioate] | > 3000 | 100 to 1000
CC(=O)N1CC[C@H]2CC[C@@H](C(=O)N(C)c3ccccc3)N2C(=O)[C@@H](NC(=O)c2cc3cc(C(F)(F)P(=O)(OCOC(=O)OC(C)C)OCOC(=O)OC(C)C)ccc3s2)C1 [Compound 318, ((((2-(((5S,8S, 10aR)-3-acetyl-8-(methyl (phenyl)carbamoyl)-6-oxodecahydro-pyrrolo[1,2-a][1,5]diazocin-5-yl)carbamoyl)benzo[b]thiophen-5-yl)difluoro-methyl)phos-phoryl)bis(oxy)) bis(methylene) diisopropyl bis(carbonate)] | 100 to 1000 | 100 to 1000
CC(=O)N1CC[C@H]2CC[C@@H](C(=O)Nc3ccc4nnccc4c3)N2C(=O)[C@@H](NC(=O)c2cc3cc(C(F)(F)P(=O)(OCOC(=O)C(C)(C)C)OCOC(=O)C(C)(C)C)ccc3s2)C1 [Compound 294, ((((2-(((5S,8S, 10aR)-3-acetyl-8-(cinnolin-6-ylcarbamoyl)-6-oxodecahydro-pyrrolo[1,2-a][1,5]diazocin-5-yl)carbamoyl)benzo[b]thiophen-5-yl)difluoro-methyl)phos-phoryl)bis(oxy)) bis(methylene) bis(2,2-dimethylpro-panoate)] | 100 to 1000 | 100 to 1000
CNC(=O)C[C@@H](Cc1ccc(OC)cc1)NC(=O)[C@@H]1CC[C@@H]2CCN(C(=O)c3n[nH]c4ccc(C)cc34)C[C@H](NC(=O)c3ccc4ccc(C(F)(F)P(=O)(O)O)cc4c3)C(=O)N21 [Compound 239, (difluoro(7-(((5S,8S,10aR)-8-(((R)-1-(4-methoxyphenyl)-4-(methylamino)-4-oxobutan-2-yl)carbamoyl)-3-(5-methyl-1H-indazole-3-carbonyl)-6-oxodecahydropyrrolo[1,2-a][1,5]diazocin-5-yl)carbamoyl)naphthalen-2-yl)methyl)phosphonic acid] | 100 to 1000 | 100 to 1000
CC(=O)N1CC[C@H]2CC[C@@H](C(=O)N(C)c3ccc(N4CCOCC4)cc3)N2C(=O)[C@@H](NC(=O)c2cc3cc(C(F)(F)P(=O)(OCOC(=O)C(C)(C)C)OCOC(=O)C(C)(C)C)ccc3s2)C1 [Compound 311, ((((2-(((5S, 8S,10aR)-3-acetyl-8-(methyl(4-morpholino-phenyl)carbamoyl)-6-oxodecahydro-pyrrolo[1,2-a][1,5]diazocin-5-yl)carbamoyl)benzo[b]thiophen-5-yl)difluoro-methyl)phos-phoryl)bis(oxy)) bis(methylene) bis(2,2-dimethylpro-panoate)] | 1000 to 3000 | 100 to 1000
CC(=O)N1CC[C@H]2CC[C@@H](C(=O)N3C[C@@H](C#N)[C@H](c4ccccc4)C3)N2C(=O)[C@@H](NC(=O)c2cc3cc(C(F)(F)P(=O)(OCOC(=O)OC(C)C)OCOC(=O)OC(C)C)ccc3s2)C1 (single isomer, unassigned) [Compound 282, ((((2-(((5S,8S, 10aR)-3-acetyl-8-((3S,4R or 3R,4S)-3-cyano-4-phenyl-pyrrolidine-1-carbonyl)-6-oxodecahydro-pyrrolo[1,2-a][1,5]diazocin-5-yl)carbamoyl)benzo[b]thiophen-5-yl)difluoro-methyl)phos-phoryl)bis(oxy)) bis(methylene) diisopropyl bis(carbonate)] | 1000 to 3000 | ≤ 100
CC(=O)N1CC[C@H]2CC[C@@H](C(=O)N(C)c3ccccc3)N2C(=O)[C@@H](NC(=O)c2cc3cc(C(=O)P(=O)(OCOC(=O)C(C)(C)C)OCOC(=O)C(C)(C)C)ccc3s2)C1 [Compound 307, (((2-(((5S, 8S,10aR)-3-acetyl-8-(methyl (phenyl)carbamoyl)-6-oxo-decahydro-pyrrolo[1,2-a][1,5]diazocin-5-yl)carbamoyl)benzo[b]thiophene-5-carbonyl)phosphoryl)bis(oxy))bis (methylene) bis(2,2-dimethylpro-panoate)] | > 3000 | > 3000
CC(=O)N1CC[C@H]2CC[C@@H](C(=O)N(C)c3ccccc3)N2C(=O)[C@@H](NC(=O)c2cc3cc(C(F)(F)P(=O)(OCCSC(=O)C(C)(C)C)OCCSC(=O)C(C)(C)C)ccc3s2)C1 [Compound 291, S,S′-(((((2-(((5S,8S, 10aR)-3-acetyl-8-(methyl (phenyl)carbamoyl)-6-oxodecahydro-pyrrolo[1,2-a][1,5]diazocin-5-yl)carbamoyl)benzo[b]thiophen-5-yl)difluoro-methyl)phos-phoryl)bis(oxy))bis(ethane-2,1-diyl)) bis(2,2-dimethylpro-panethioate)] | > 3000 | > 3000
CC(=O)N1CC[C@H]2CC[C@@H](C(=O)N(C)c3ccccc3)N2C(=O)[C@@H](NC(=O)c2cc3cc(C(F)(F)P(=O)(OCOC(=O)C(C)(C)C)OCOC(=O)C(C)(C)C)ccc3s2)C1 [Compound 296, ((((2-(((5S,8S, 10aR)-3-acetyl-8-(methyl (phenyl)carbamoyl)-6-oxodecahydro-pyrrolo[1,2-a][1,5]diazocin-5-yl)carbamoyl)benzo[b]thiophen-5-yl)difluoro-methyl)phos-phoryl)bis(oxy)) bis(methylene) bis(2,2-dimethylpro-panoate)] | 100 to 1000 | ≤ 100
CC(=O)N1CC[C@H]2CC[C@@H](C(=O)N(C)c3ccc4nnccc4c3)N2C(=O)[C@@H](NC(=O)c2cc3cc(C(F)(F)P(=O)(OCOC(=O)C(C)(C)C)OCOC(=O)C(C)(C)C)ccc3s2)C1 [Compound 290, ((((2-(((5S,8S, 10aR)-3-acetyl-8-(cinnolin-6-yl(methyl)carbamoyl)-6-oxodecahydro-pyrrolo[1,2-a][1,5]diazocin-5-yl)carbamoyl)benzo[b]thiophen-5-yl)difluoro-methyl)phos-phoryl)bis(oxy)) bis(methylene) bis(2,2-dimethylpro-panoate)] | 1000 to 3000 | 100 to 1000
